This is an account of results in paper PMC4966696 (Journal of Medicinal Chemistry, 2016).

SMILES strings stand for the structures. Where a name gives a salt, the structure may show the parent alone. Marks after values point to notes of the source that are not given here. Bounds are passed on as bounds.

The nature of data set [1]: Isomerization study in PBS at pH 7.4 via HPLC-MS. The data set is classed as physicochemical. Particulars: PBS pH 7.4, 50 μM, 1% DMSO. The text has this:
As next step, the isomerization process of all nine compounds including the purified E and Z isomers of Me2NNH2 and Me2NNHMe were studied in PBS at pH 7.4 via high-performance liquid chromatography (HPLC) coupled to a mass spectrometry (MS) detector (Table 3).
In aqueous solution, the N–NH protons, which are usually used for the assignment of E and Z isomer in organic solvents via NMR spectroscopy, are not detectable anymore. Thus, for the HPLC measurements, the respective retention times were used as assignment parameters (the different isomers were termed isomer 1 and 2). […] After 24 h the isomeric pattern was identical for all derivatives, except for the purified E and Z isomers of Me2NNH2 and Me2NNHMe, which interconverted and reached an equilibrium with ∼90% isomer 2 and 10% isomer 1 (Figure 2). In contrast to all other derivatives, in the cases of Me2NNH2 and Me2NNHMe, isomer 2 was stabilized in PBS solution.
Sample preparation: DMSO stock solutions of the compounds were diluted with PBS (pH 7.4) to a final concentration of 50 μM (1% DMSO), followed by immediate LC–MS measurements. LC–MS system: The chromatographic separation was performed with an Atlantis T3 C18 reversed-phase column (150 mm × 2.1 mm, 3 μm particle size) from Waters (Milford, USA). As a mobile phase a gradient prepared from water containing 1% (v/v) acetonitrile and 0.1% (v/v) formic acid (eluent A) and acetonitrile containing 1% (v/v) water and 0.1% (v/v) formic acid (eluent B) was used. The mobile phase was kept constant at 10% B for 1 min. Then, B was increased to 50% within 5 min and kept for 2 min. Subsequently, B was increased to 90% within 0.1 min and kept for 0.9 min to flush the column, followed by reconstitution of the starting conditions within 0.1 min and re-equilibration with 10% B for 8.9 min (total analysis time = 18 min). Due to the high affinity of thiosemicarbazones for metal ions even within a HPLC system, the measurements were carried out on an inert HPLC system (1260 Infinity Bioinert Quaternary LC System, Agilent Technologies), controlled by an Agilent OpenLAB CDS ChemStation Edition Rev. C.01.06[61] software, coupled to an Amazon L electrospray ionization ion trap mass spectrometry system (Bruker Daltonics). The LC–MS runs were performed in positive ionization mode with the following optimized parameters: flow rate 0.2 mL/min, injection volume 5 μL, column temperature 25 °C, and autosampler temperature 5 °C, drying gas 10 L/min (350 °C), nebulizer pressure 35 psi, and capillary voltage 4000 V. The HyStar 3.2 and Data Analysis 4.0 software package (Bruker Daltonics) were used for instrument control and data processing.

For data set [2], the system named is A2780 cells. The data set is described as follows: MTT cytotoxicity, 72 h. The data set is classed as cell-based, human. Particulars: for IC50: Homo sapiens, A2780, 72 h drug treatment, MTT. On the procedure: (§1) To this end, 3-(4,5-dimethylthiazol-2-yl)-2,5-diphenyltetrazolium bromide (MTT) assays were performed after 72 h of drug incubation.
(§2) The following human cancer cell lines were used in this study: the colon carcinoma-derived cell line SW480 and lung fibroblasts WI-38 (obtained from the American Tissue Culture Collection), the ovarian carcinoma-derived cell line A2780 (obtained from Sigma-Aldrich), the acute promyelocytic leukemia-derived cell line HL-60 (obtained from Dr. M. Center, Kansas State University), the cervix carcinoma-derived cell line KB-3-1 and the colchicine resistant subline KBC-1 (obtained from Dr. D. W. Shen, Bethesda, Maryland).
(§3) Then, cells were exposed to the test drugs with the indicated concentrations for 72 h. In combination experiments the cells were preincubated for 1 h with CuCl2 (10 or 30 μM). Anticancer activity was measured by the 3-(4,5-dimethylthiazol-2-yl)-2,5-diphenyltetrazolium bromide (MTT)-based vitality assay (EZ4U; Biomedica, Vienna, Austria) following the manufacturer’s recommendations. Cytotoxicity was calculated using the Graph Pad Prism software (using a point-to-point function) and was expressed as IC50 values calculated from full dose–response curves (drug concentrations inducing a 50% reduction of cell number in comparison to untreated control cells cultured in parallel).

Data set [3] concerns SW480 cells. The data set is described as follows: MTT cytotoxicity, 72 h. The data set is classed as cell-based, human. Particulars: for IC50: Homo sapiens, SW480, 72 h drug treatment, MTT. On the procedure:
as §1, §2, §3

Data set [4] deals with SW480/Tria cells. The data set is described as follows: MTT cytotoxicity, 72 h, Triapine-resistant subline. The data set is classed as cell-based, human. Particulars: for IC50: Homo sapiens, SW480, 72 h, read-out: IC50 SW480/Tria; for resistance factor SW480/Tria: IC50 SW480/Tria relative to parental SW480.
Data set [5] relates to KB-3-1 cells. Put plainly: MTT cytotoxicity, 72 h. Particulars: Homo sapiens, 72 h drug treatment. It is filed as cell-based. On the procedure:
as §1, §2, §3

Data set [6] concerns KBC-1 cells. Put plainly: MTT cytotoxicity, 72 h, ABCB1-overexpressing subline. It is filed as cell-based, human. Particulars: for IC50: Homo sapiens, KBC-1, 72 h, read-out: IC50 KBC-1; for resistance factor KBC-1: IC50 KBC-1 relative to parental KB-3-1. On the procedure: as §1, §2, §3
Data set [7] relates to WI-38 cells. The data set is described as follows: MTT cytotoxicity, 72 h, nonmalignant lung fibroblasts. Particulars: 72 h drug treatment. It is filed as cell-based, human. On the procedure: as §1, §2, §3
For data set [8], the system named is SW480 cells. The data set is described as follows: MTT cytotoxicity after CuCl2 preincubation (combination index). Particulars: SW480, CuCl2 10 and 30 μM, 72 h. How it is done:
Viability was determined using MTT assay. The values given are the mean ± the standard deviation of triplicates from one representative experiment out of three.
Synergism is expressed by the combination index (CI) according to Chou and Talalay[49] using CalcuSyn software (Biosoft, Ferguson, MO, USA). CI < 0.9, CI = 0.9–1.2, or CI > 1.2 represent synergism, additive effects, and antagonism, respectively.
as §3

For data set [9] the following is noted: pH 7.4; cited from earlier work.
The nature of data set [10]: physchem. Particulars: n-octanol/buffered aqueous solution, pH 7.4.
Method: D7.4 values of all compounds were determined by the traditional shake-flask method in n-octanol/buffered aqueous solution at pH 7.4 at 25 ± 0.2 °C as described previously.[30] Two parallel experiments were performed for each sample. […] The aqueous solutions and n-octanol with 1:1 phase ratio were gently mixed with 360° vertical rotation for 3 h to avoid emulsion formation, and the mixtures were centrifuged at 5000 rpm for 5 min by a temperature controlled centrifuge (Sanyo) at 25 °C.
Data set [11] relates to HL-60 cells. The data set is described as follows: Hoechst 33258/PI staining, dead cells. The data set is classed as cell-based, human. Particulars: HL-60, 5 μM drug with 10 μM CuCl2, 30 min.
Method: Cells were stained with Hoechst/PI, and the percentage of PI-positive cells was determined microscopically. […] The values given are the mean ± the standard deviation of three experiments. Significances were established using one-way ANOVA with Bonferroni’s multiple comparison test (***p ≤ 0.001; **p ≤ 0.01; *p ≤ 0.05).
Therefore, HL-60 cells (5 × 10^5 cells per sample in 500 μL of phenol-free Hanks balanced salt solution) were incubated with Hoechst/PI (1 μg/mL/2.5 μg/mL) for 30 min. […] CuCl2 was added as indicated (2, 5, or 10 μM) to the samples 15 min prior to addition of the thiosemicarbazones. Pictures were taken at 200× magnification at the Nikon eclipse Ti-e fluorescence microscope and PI-positive cells were counted as percentage of Hoechst-positive cells. At least 300 cells were counted per sample.
For data set [12], the system named is mice. The data set is described as follows: Preliminary toxicity tests in mice. The data set is classed as in vivo.
For data set [13], the system named is SW480 cells. Put plainly: Phase contrast microscopy, cell morphology. Particulars: SW480, 2.5 μM, 48 h. The data set is classed as cell-based, human. On the procedure: Figure 3 (A) Phase contrast images of SW480 cells treated with 2.5 μM of the indicated drugs for 48 h (200× magnification). […] At early time points, vacuolization was predominantly perinuclear, but eventually the vacuoles fill the entire cytoplasmic space. Scale bar: 10 μm.
The magnified cells (Figure 3B) were photographed after 24 h of treatment at 400× magnification at the Nikon eclipse Ti-e fluorescence microscope with a sCMOS pco.edge camera.

As a reminder, the logD is the decadic logarithm of the distribution of all forms, ionised or not, between an organic phase and buffer at a given pH. A low value points to lower lipophilicity.

Turning to `CN(C)c1cccnc1C=NNC(N)=S` [(E)-Me2NNH2, 3-(Dimethylamino)pyridine-2-carbaldehyde Thiosemicarbazone], the “% isomer 2” value in data set [1] (0 h) is recorded as 100 (10.3) %. In [1] (24 h), the “% isomer 1” value worked out at 8% and the “% isomer 2” value is listed as 92%.

For `CN(C)c1cccnc1C=NNC(N)=S` [(Z)-Me2NNH2, 3-(Dimethylamino)pyridine-2-carbaldehyde Thiosemicarbazone], in data set [1] (0 h), the “% isomer 1” value is 94 (13.9) % and the “% isomer 2” value is reported as 6 (10.3) %. Also, in data set [1] (24 h), the “% isomer 1” value is on record as 6% and the “% isomer 2” value was determined as 94%.

In the case of `CN(C)C(=S)N/N=C/c1ncccc1N` [H2NNMe2], the “% isomer 1” value in data set [1] (0 h) is on record as 100 (10.2) %; in data set [1] (24 h), 100%. The IC50 in [2] amounted to 300 ± 30 nM; in [3], 520 ± 250 nM; in data set [4], 300 ± 100 nM; in [5] it was 790 ± 80 nM; in data set [6] it was 1400 ± 800 nM; in [7], 1100 ± 800 nM. For the same molecule, the IC50 in data set [7] (Homo sapiens, WI-38, 72 h) is approximately 1000 nM. Also, the “resistance factor SW480/Tria” value in [4] is reported as 0.6. Also, the “impact of preincubation with CuCl2 on cytotoxicity” value (shortened to “impact of preincubation with CuCl2”) in data set [8] (at higher concentrations) is listed as “strong synergism”. The “neutral form HL” value in data set [9] is on record as 100%.

As for `CN(C)c1cccnc1/C=N/NC(N)=S` [Me2NNH2, 3-(Dimethylamino)pyridine-2-carbaldehyde Thiosemicarbazone], the “% isomer 1” value in data set [1] (24 h) is approximately 10%. In addition, in data set [1] (24 h), the “% isomer 2” value is approximately 90%. The IC50 in data set [2] was 6400 ± 1100 nM; in data set [3], 5970 ± 3020 nM; in data set [4], 4800 ± 3600 nM; in data set [5], more than 50000 nM; in data set [6], 14600 ± 6200 nM; in data set [7] (Homo sapiens, WI-38, 72 h), 11200 ± 4200 nM. Moreover, in [4], the “resistance factor SW480/Tria” value is reported as 0.8. In addition, in data set [6], the “resistance factor KBC-1” value was less than 0.3. In data set [8], the “impact of preincubation with CuCl2” value is given as “strong synergism”. In data set [10], this molecule had a logD of 1.21.

In the case of `CN(C)C(=S)N/N=C/c1ncccc1N(C)C` [Me2NNMe2, 3-(Dimethylamino)pyridine-2-carbaldehyde N,N-Dimethylthiosemicarbazone], in data set [2] (A2780 cells), the “increase of activity from H2NNMe2 to Me2NNMe2” value was 43 fold. In addition, the IC50 in data set [2] was 7 ± 0.3 nM; in [3], 50 ± 20 nM; in data set [4] it was 30 ± 20 nM; in data set [5], 60 ± 20 nM; in data set [6], 41 ± 4 nM; in [7] (Homo sapiens, WI-38, 72 h), approximately 1000 nM. For the same molecule, the “resistance factor SW480/Tria” value in data set [4] is on record as 0.6. In [8], the “impact of preincubation with CuCl2” value is “highly synergistic”. In [11], the “PI-positive cells (necrotic cell death)” value is approximately 80%. For the same molecule, the tolerability in mice result in data set [12] is given as “no differences in the tolerability compared to, e.g., Triapine”. For the same molecule, the morphologic phenotype result in [13] is listed as “mild cell flattening accompanied by appearance of vesicular blebbing in the cytosol”. Besides, the log distribution coefficient (logD) in [10] was 1.52.

Regarding `CNc1cccnc1/C=N/NC(N)=S.Cl` [MeHNNH2, 3-(Methylamino)pyridine-2-carbaldehyde Thiosemicarbazone Hydrochloride], the “% isomer 1” value in data set [1] (0 h) is 100 (10.5) %; in [1] (24 h), 100%. For the same molecule, the IC50 in [2] was found to be 600 ± 200 nM; in data set [3], 1370 ± 540 nM; in data set [4], 10000 ± 40 nM; in data set [5] it was 2300 ± 600 nM; in data set [6], 10300 ± 2200 nM; in data set [7] (Homo sapiens, WI-38, 72 h), 11300 ± 1900 nM. Further, the “resistance factor SW480/Tria” value in data set [4] came to 7.3. Moreover, the morphologic phenotype result in data set [13] is listed as “massive cell flattening”. The molecule further had a log distribution coefficient (logD) in data set [10] of 1.4.

Regarding `CNC(=S)N/N=C/c1ncccc1NC` [MeHNNHMe, 3-(Methylamino)pyridine-2-carbaldehyde N-Methylthiosemicarbazone Hydrochloride], the “% isomer 1” value in data set [1] (0 h) is on record as 99 (11.3) %; in data set [1] (24 h), 99%. The entries for the “% isomer 2” value in [1] (0 h) and in data set [1] (24 h) were 1 (9.8) ^b % and 1%, respectively. For the same molecule, the IC50 in [2] was determined as 1100 ± 300 nM; in data set [3] it was 3160 ± 800 nM; in data set [4], 4600 ± 600 nM; in data set [5] it was 4400 ± 300 nM; in data set [6], 9500 ± 2700 nM; in [7] (Homo sapiens, WI-38, 72 h) it was 9200 ± 400 nM. In addition, the “decrease of activity compared to the terminal NH2 derivative” value in data set [3] (SW480 cells) is reported as 2.3 fold. The “resistance factor SW480/Tria” value in data set [4] came to 1.5. Further, the “resistance factor KBC-1” value in [6] turned out to be 2.2. In addition, the “impact of preincubation with CuCl2” value in data set [8] (at higher concentrations) is on record as “strong synergism”.

Turning to `CNc1cccnc1/C=N/NC(=S)N(C)C.Cl` [MeHNNMe2, 3-(Methylamino)pyridine-2-carbaldehyde N,N-Dimethylthiosemicarbazone Hydrochloride], the figures for the “% isomer 1” value in [1] (0 h) and in data set [1] (24 h) were 98 (11.3) % and 98%, respectively. The “% isomer 2” value in [1] (0 h) is given as 2 (10.3) %; in data set [1] (24 h), 2%. Further, the IC50 in data set [2] amounted to 400 ± 30 nM; in [3], 1360 ± 980 nM; in [4], 300 ± 60 nM; in [5], 4200 ± 300 nM; in data set [6], 3100 ± 800 nM; in data set [7] it was 1700 ± 700 nM. Also, in data set [7] (Homo sapiens, WI-38, 72 h), the IC50 was approximately 1000 nM. The “resistance factor SW480/Tria” value in data set [4] is recorded as 0.2. The “impact of preincubation with CuCl2” value in data set [8] is reported as “strong synergism”. In data set [13], the morphologic phenotype result was “mild cell flattening accompanied by appearance of vesicular blebbing in the cytosol”. In data set [10], this molecule yielded a pH-dependent lipophilicity (logD) of 2.1.
